Source: paper PMC7894426, “Influence of verapamil on the pharmacokinetics of rotundic acid in rats and its potential mechanism” (Pharmaceutical Biology, 2021)
Like-named read-outs stand apart in the source and are kept apart here.

Columns and labels:
CYP2D6 = molecular target: T1, CYP2D6 (Homo sapiens, UniProt P10635); assay: Metabolic depletion of RA by rhCYP2D6; type: in vitro ADME; conditions: rhCYP2D6 25 pM, RA 2 µM, 30 min
T1 construct: purchased Research Institute for Liver Disease (Shanghai) Co., Ltd
T1 sequence (P10635 whole entry): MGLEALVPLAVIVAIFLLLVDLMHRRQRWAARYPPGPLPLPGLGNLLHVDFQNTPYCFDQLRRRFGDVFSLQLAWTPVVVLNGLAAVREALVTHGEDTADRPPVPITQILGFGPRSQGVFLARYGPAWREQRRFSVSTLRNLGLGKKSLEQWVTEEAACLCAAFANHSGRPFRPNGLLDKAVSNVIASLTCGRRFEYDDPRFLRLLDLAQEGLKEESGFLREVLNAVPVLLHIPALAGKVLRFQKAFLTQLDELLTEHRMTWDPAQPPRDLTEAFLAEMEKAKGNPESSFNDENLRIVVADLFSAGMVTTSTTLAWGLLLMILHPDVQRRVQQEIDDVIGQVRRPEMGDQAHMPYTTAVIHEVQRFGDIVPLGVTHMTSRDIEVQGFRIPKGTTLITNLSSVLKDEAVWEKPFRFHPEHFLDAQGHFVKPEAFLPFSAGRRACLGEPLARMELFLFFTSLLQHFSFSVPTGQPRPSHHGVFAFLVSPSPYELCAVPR
Protocol: (§1) The metabolic stability of RA was evaluated against five rhCYPs (1A2, 2C8, 2C9, 2D6 and 3A4). Incubation was taken place in 0.1 M sodium phosphate buffer (pH 7.4) containing 5 mM MgCl2, 1 mM NADPH, and 25 pM rhCYP enzyme protein at 37 °C in a total volume of 1 mL. After pre-incubated for 5 min, the reactions were started by the addition of RA methanol solution (final concentration of 2 µM). Aliquots of 50 µL incubation solution were collected from the reaction at 0, 5, 10, 20 and 30 min, and quenched with 50 µL ice-cold methanol (containing 0.5% formic acid) and 100 µL ice-cold acetonitrile containing IS (10 ng/mL). The heat-inactivated rhCYP3A4 were used as negative controls. All reactions were conducted in triplicate, followed by LC-MS/MS analysis. Results presented in percentage of drug remaining in incubation starting at 100% at time zero.

Caco-2 cells = assay: MTS cell-proliferation assay; type: cell-based, human; conditions: 25 µM RA
CYP2C9 = molecular target: T2, CYP2C9 (Homo sapiens, UniProt P11712); assay: Metabolic depletion of RA by rhCYP2C9; type: in vitro ADME; conditions: rhCYP2C9 25 pM, RA 2 µM, 30 min
T2 construct: purchased Research Institute for Liver Disease (Shanghai) Co., Ltd
T2 sequence (P11712 whole entry): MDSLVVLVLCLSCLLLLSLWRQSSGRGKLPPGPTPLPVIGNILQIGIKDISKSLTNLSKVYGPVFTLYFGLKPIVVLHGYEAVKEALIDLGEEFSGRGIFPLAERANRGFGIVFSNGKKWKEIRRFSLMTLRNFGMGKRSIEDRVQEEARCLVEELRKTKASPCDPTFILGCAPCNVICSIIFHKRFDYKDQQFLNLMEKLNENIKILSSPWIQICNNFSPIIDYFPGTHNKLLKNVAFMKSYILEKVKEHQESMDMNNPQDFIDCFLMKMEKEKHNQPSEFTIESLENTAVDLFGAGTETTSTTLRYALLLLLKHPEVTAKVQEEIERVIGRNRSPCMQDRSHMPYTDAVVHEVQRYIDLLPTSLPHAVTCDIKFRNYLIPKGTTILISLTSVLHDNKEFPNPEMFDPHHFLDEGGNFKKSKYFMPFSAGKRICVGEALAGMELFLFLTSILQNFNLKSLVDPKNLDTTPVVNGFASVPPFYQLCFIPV
Protocol: as §1

rat liver microsomes = assay: Metabolic stability in rat liver microsomes with or without verapamil; type: in vitro ADME; conditions: heat-inactivated microsomes, RA 2 µM
Protocol: (§2) Low metabolic stability is a major barrier to further improve the oral bioavailability of the herb drugs. To gauge the medicinal chemistry value of RA, we evaluated their metabolic stability in RLMs with or without verapamil. The in vitro microsomal stability assay was conducted in triplicate in rat liver microsomal systems, which were supplemented with NADPH as a cofactor. The assay conditions and reaction mixtures were similar to the previous report with minor modifications (Li et al. [2016]; Sun et al. [2019]). Briefly, the incubation system (final volume of 1 mL) consisted of 1 mg/mL rat liver microsomal protein, 1 mM NADPH, and 5 mM MgCl2 in 0.1 M sodium phosphate buffer (pH 7.4). The incubation system was pre-incubated at 37 °C for 15 min and initiated by adding RA methanol solution (final concentration of 2 µM). The effects of verapamil on the metabolic stability of RA were investigated by adding 50 µM of verapamil (Ma et al. [2000]; Lee and Kim [2013]; Dinger et al. [2014]) to RLMs and pre-incubating for 15 min at 37 °C. The final concentration of methanol (used for dissolving the substrate and inhibitor) was lower than 1% (v/v). Negative control was performed in parallel in a heat-inactivated liver microsomes incubation system to measure any chemical instability or non-enzymatic degradation. Aliquots of 50 µL incubation solution were collected from the reaction at 0, 5, 15, 30 and 60 min, and quenched with 50 µL ice-cold methanol (containing 0.5% formic acid) and 100 µL ice-cold acetonitrile containing IS (10 ng/mL). The samples were then vortexed for 1 min and centrifuged at 12,000 rpm for 10 min at 4 °C. The supernatants were collected and analyzed by LC-MS/MS.
(§3) Substrate depletion and in vitro half-life (t1/2) are common descriptors for metabolic stability. The t1/2 is calculated by the substrate disappearance. The obtained concentration value for time t is divided by the value for time zero and then multiplied by a factor of 100, which represents the ‘% Remaining’ to provide the relative remaining substrate level for the time t. The natural logarithm (ln) of the ‘% Remaining’ of RA was plotted against the incubation time (in min) using linear regression.
(§4) Where, ke, the elimination rate constant, is the slope of a linear regression curve in a semilog plot. Data were collected from triplicate experiments.

[1] = as above; type: in vitro ADME; conditions: rat, liver microsomes, RLMs 1 mg/mL, RA 2 µM; for k el at 2 µM: read-out: ke (converted)
Protocol: as §2, §3, §4

MDCKII-Mock cells = assay: MTS cell-proliferation assay; type: cell-based, canine; conditions: 25 µM RA
CYP2C8 = molecular target: T3, CYP2C8 (Homo sapiens, UniProt P10632); assay: Metabolic depletion of RA by rhCYP2C8; type: in vitro ADME; conditions: rhCYP2C8 25 pM, RA 2 µM, 30 min
T3 construct: purchased Research Institute for Liver Disease (Shanghai) Co., Ltd
T3 sequence (P10632 1-490): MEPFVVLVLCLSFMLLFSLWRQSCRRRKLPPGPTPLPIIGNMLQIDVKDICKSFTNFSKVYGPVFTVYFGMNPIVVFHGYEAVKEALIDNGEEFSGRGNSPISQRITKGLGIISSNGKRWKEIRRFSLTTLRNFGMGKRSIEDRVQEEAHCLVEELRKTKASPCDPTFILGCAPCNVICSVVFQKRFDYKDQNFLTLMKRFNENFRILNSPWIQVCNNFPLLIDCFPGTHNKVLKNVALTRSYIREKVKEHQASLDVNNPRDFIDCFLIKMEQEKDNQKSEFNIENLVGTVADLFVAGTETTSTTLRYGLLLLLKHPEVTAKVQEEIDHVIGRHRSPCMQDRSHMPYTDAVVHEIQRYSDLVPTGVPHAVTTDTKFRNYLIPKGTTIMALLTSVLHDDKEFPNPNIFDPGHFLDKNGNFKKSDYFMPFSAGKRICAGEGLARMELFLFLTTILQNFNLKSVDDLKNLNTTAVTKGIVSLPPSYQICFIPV
Protocol: as §1

MDCKII-MDR1 cells = assay: MTS cell-proliferation assay; type: cell-based, canine; conditions: 25 µM RA
[2] = Bidirectional transport across MDCKII-Mock cell monolayers; type: in vitro ADME, canine; conditions: dog, MDCK, MDCKII-Mock, 20 min; for efflux ratio at 20 min: read-out: RE (efflux ratio)
Protocol: The qualified monolayers were used for transport studies. […] Each experiment was carried out in triplicate.

P-gp = P-gp (Homo sapiens, UniProt P08183); assay: Bidirectional transport across MDCKII-MDR1 cell monolayers (P-gp substrate assessment); conditions: dog, MDCK-MDR1, pH 7.4
Sequence of P-gp (P08183 whole entry): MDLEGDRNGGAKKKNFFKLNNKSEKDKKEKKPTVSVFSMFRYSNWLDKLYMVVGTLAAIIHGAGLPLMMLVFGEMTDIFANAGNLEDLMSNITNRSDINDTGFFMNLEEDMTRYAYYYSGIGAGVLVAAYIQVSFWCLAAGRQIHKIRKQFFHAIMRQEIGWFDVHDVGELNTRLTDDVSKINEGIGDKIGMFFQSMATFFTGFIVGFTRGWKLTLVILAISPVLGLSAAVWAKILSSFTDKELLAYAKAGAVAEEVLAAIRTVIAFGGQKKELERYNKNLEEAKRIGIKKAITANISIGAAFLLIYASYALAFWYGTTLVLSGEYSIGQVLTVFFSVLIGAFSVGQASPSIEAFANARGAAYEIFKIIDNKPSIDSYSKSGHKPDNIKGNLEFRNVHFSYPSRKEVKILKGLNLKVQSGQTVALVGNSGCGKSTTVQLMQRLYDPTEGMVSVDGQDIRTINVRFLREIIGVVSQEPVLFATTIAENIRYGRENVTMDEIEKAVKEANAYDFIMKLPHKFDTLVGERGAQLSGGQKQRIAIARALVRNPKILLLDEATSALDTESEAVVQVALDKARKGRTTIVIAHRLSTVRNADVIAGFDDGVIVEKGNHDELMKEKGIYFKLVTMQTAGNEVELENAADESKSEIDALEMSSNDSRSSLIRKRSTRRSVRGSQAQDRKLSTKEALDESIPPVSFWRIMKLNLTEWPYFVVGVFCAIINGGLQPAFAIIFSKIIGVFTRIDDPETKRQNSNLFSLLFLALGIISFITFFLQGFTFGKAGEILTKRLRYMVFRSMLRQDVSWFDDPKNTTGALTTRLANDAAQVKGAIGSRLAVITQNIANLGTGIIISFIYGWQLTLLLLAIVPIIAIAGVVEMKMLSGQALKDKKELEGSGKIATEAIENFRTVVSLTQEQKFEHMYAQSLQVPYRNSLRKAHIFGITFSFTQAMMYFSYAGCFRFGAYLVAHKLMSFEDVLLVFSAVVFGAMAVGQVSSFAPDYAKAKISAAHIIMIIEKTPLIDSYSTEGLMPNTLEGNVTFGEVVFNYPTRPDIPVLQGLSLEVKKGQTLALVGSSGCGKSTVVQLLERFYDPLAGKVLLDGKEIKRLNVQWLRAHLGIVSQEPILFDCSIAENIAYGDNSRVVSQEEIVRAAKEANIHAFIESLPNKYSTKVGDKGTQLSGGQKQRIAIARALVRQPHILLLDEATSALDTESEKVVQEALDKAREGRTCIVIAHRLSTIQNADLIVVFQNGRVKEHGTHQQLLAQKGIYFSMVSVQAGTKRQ
Protocol: MDCKII-Mock and MDCKII-MDR1 cells were given as a gift by Fuji Biomedix Co., Ltd. (Japan) and cultured in DMEM supplemented with 10% FBS and 1% antibiotic (10,000 U/mL penicillin and 10 mg/mL streptomycin). Caco-2 cell line, the human epithelial cell used in this assay, was purchased from the Cell Bank of the Chinese Academy of Sciences (Shanghai, China) and maintained between 30 and 45 passages. It was cultured according to the previous report (Guo et al. [2018]; Xiang et al. [2020]). Briefly, the Caco-2 cells were cultured in DMEM supplemented with 10% FBS, 1% NEAA, and 1% antibiotic (10,000 U/mL penicillin and 10 mg/mL streptomycin). All cells were maintained in a 5% CO2 atmosphere and 90% relative humidity at 37 °C.
For transport studies, the MDCKII-Mock, MDCKII-MDR1, and Caco-2 cells were seeded at a density of 2 × 10^5 cells/mL on Costar Transwell inserts (1.12 cm^2 surface, polycarbonate, 12 mm diameter, 0.4 µm pore size). MDCKII-Mock and MDCKII-MDR1 cells were cultured for 5–7 days in medium, for the first four days, the medium was replaced freshly every two days, and then daily. The Caco-2 cells were cultured for 19–21 days in the medium. For the first 2 weeks, the medium was replaced freshly every two days, and then daily. […] The transepithelial electrical resistance (TEER) of the monolayer cells was measured by Millcell ERS-2 (Millipore, USA), and only the monolayer with TEER exceeding 150 Ω·m^2 (MDCKII-Mock and MDCKII-MDR1 cells) and 400 Ω·m^2 (Caco-2 cells) were used for the transport experiment. The membrane integrity and transport function of MDCKII-Mock, MDCKII-MDR1, and Caco-2 cell monolayers were further verified with Lucifer yellow and Rhodamine-123. The qualified monolayers were used for transport studies.
Before the transport studies, the media in both chambers of the transwell were replaced by warm (37 °C) Hank’s balanced salt solution (HBSS), and then the MDCKII-Mock, MDCKII-MDR1, and Caco-2 cell monolayers were incubated at 37 °C and 5% CO2 for 20 min. […] Our transport studies included absorptive direction transport from the apical (AP) side to the basolateral (BL) side and secretory direction transport from the BL side to the AP side. […] After administration, the transwell plate was placed in a thermostatic oscillator shaking at 60 rpm and 37 °C. At 10, 20, 40 and 60 min, respectively, 50 µL incubating sample aliquot was collected from the receiver chamber and immediately replaced by the same volume of fresh HBSS (37 °C). In addition, the membrane integrity of MDCKII-Mock, MDCKII-MDR1, and Caco-2 cell monolayers were evaluated with Lucifer yellow (30 µM) and TEER value, and the efflux activity of P-gp was validated using a typical P-gp substrate rhodamine-123 (10 µM).
The parameters Papp, RE, and NRE were calculated using the following equation: Papp=(ΔQ/Δt)×[1/(A×C0)]

[3] = rats, oral administration; ref Nan et al. [2016]; cited from earlier work
[4] = pH 7.4, with verapamil 50 µM, pre-treatment of verapamil 50 µM
[5] = pH 7.4, with verapamil 50 µM, + 50 µM verapamil

Structure (SMILES): C[C@@H]1CC[C@]2(C(=O)O)CC[C@]3(C)C(=CC[C@@H]4[C@@]5(C)CC[C@H](O)[C@@](C)(CO)[C@@H]5CC[C@]43C)[C@@H]2[C@]1(C)O [RA, Rotundic acid]
- RA converted (CYP2D6): < 30%
- effect on cell proliferation (MTS) (Caco-2 cells): did not influence the cell proliferation
- RA converted (CYP2C9): 41.4%
- degradation in negative control (rat liver microsomes): No obvious degradation
- half-life at 2 µM [1, 4]: 58.2 ± 5.17 min
- microsomal CLint at 2 µM [1, 4]: 12 ± 1.06 µL/min/mg
- k el at 2 µM [1, 4]: 0.0002 s⁻¹
- half-life at 2 µM ([1]; pH 7.4, control): 14.3 ± 0.941 min
- microsomal CLint at 2 µM ([1]; pH 7.4, control): 48.5 ± 3.18 µL/min/mg
- k el at 2 µM ([1]; pH 7.4, control): 0.000808 s⁻¹
- effect on cell proliferation (MTS) (MDCKII-Mock cells): did not influence the cell proliferation
- RA converted (CYP2C8): < 30%
- effect on cell proliferation (MTS) (MDCKII-MDR1 cells): did not influence the cell proliferation
- Papp A→B at 20 min [2, 5]: 6.52 ± 0.864 ×10⁻⁶ cm/s
- Papp B→A at 20 min [2, 5]: 6.23 ± 0.895 ×10⁻⁶ cm/s
- efflux ratio at 20 min [2, 5]: 0.955
- Papp A→B at 20 min ([2]; pH 7.4, without verapamil): 6.07 ± 0.886 ×10⁻⁶ cm/s
- Papp B→A at 20 min ([2]; pH 7.4, without verapamil): 6.72 ± 2.03 ×10⁻⁶ cm/s
- efflux ratio at 20 min ([2]; pH 7.4, without verapamil): 1.11
- Papp A→B at 20 min (P-gp): 4.22 ± 0.611 ×10⁻⁶ cm/s
- Papp B→A at 20 min (P-gp): 12.1 ± 1.55 ×10⁻⁶ cm/s
- efflux ratio at 20 min (P-gp): 2.87
- oral bioavailability [3]: 4.52%
